# Laboratory results: patent publication US20150209327A1, “METHODS FOR THE TREATMENT OF OBESITY USING APREMILAST” (Celgene Corporation, priority 2014, published 2015)
# Several values for one entry are separate records, joined by “and”; a condition that tells them apart may be missing. Identical values can stand only once.
# Tests used:
# [1] = Psoriatic Arthritis (PsA) Phase 3 Data Pool: weight change; assay type: in vivo, human; settings: for Weight % Change Category 0%, n (%) / Weight % Change Category <−20%, n (%) / Weight % Change Category >0% to ≦5%, n (%) / Weight % Change Category >5% to ≦10%, n (%) / Weight % Change Category >10% to ≦20%, n (%) / Weight % Change Category >20%, n (%) / Weight % Change Category ≧−5% to <0%, n (%) / Weight % Change Category ≧−10% to <−5%, n (%) / Weight % Change Category ≧−20% to <−10%, n (%): Subjects as Treated; for observed weight loss of greater than 10%, subjects n (%) / percentage of subjects with weight change of -10% to <−5%: Weeks 0 to 16
# Excerpt: Apremilast has shown benefit of weight loss in both Phase 2 and Phase 3 Psoriatic Arthritis (PSA) and Psoriasis (PSOR) trials.
# [2] = test system: Phosphodiesterase 4 enzyme; experiment: Inhibition of PDE4 (enzyme purified from U937 human monocytic cells); assay type: biochemical; settings: 1 μM cAMP, 45 min at 30° C.
# Method: Inhibition of PDE4: Phosphodiesterase 4 enzyme was purified from U937 human monocytic cells by gel filtration chromatography, and phosphodiesterase reactions were carried out as previously described. See Muller et al., Bioorg. Med. Chem. Lett., 1998, 8(19): 2669-2674. Briefly, reactions were carried out in 96-well deep-well plates in 50 mM Tris HCl pH 7.5, 5 mM MgCl2, 1 μM cyclic adenosine monophosphate (cAMP), plus 10 nM [3H]-cAMP for 45 min at 30° C. The reactions were terminated by boiling, treated with 1 mg/ml snake venom, and separated using AG-1X8 ion exchange resin (BioRad). Reactions consumed less than 15% of available substrate.
# PDE1 = PDE1 enzyme assay; assay type: biochemical; settings: at 10 μM
# Method: (§1) PDE1, 2, 3 and 5 enzyme assays were prepared as described by Hidaka and Asano. Biochem. Biophys. Acta., 1976, 429:485; see also Nicholsen et al., Trends Pharmaco. Sci., 1991, 12:19. The PDE6 enzyme assay was prepared according to Baehr et al., J. Biol. Chem., 1979, 254:11669 and Gillespie et al., Mol. Pharm., 1989, 36: 773. The PDE7 enzyme assay was prepared according to Bloom and Beavo. Proc. Natl. Acad. Sci. USA, 1996, 93:14188-92.
# PDE3 = PDE3 enzyme assay; assay type: biochemical; settings: at 10 μM
# Method: as §1
# [3] = 20 mg BID, Week 52, Apremilast Subjects as Treated
# [4] = 20 mg BID, Week 78, Apremilast Subjects as Treated
# [5] = 30 mg BID, Apremilast-exposure Period, m = 944
# [6] = 30 mg BID, End of Period (APR, apremilast exposure), Subjects as Initially Treated at Week 0
# [7] = 30 mg BID, End of Period (PBC, Week 24), Subjects as Initially Treated at Week 0
# [8] = 30 mg BID, End of Period (apremilast exposure), Apremilast Subjects as Treated
# [9] = 30 mg BID, Week 52, Apremilast Subjects as Treated
# [10] = 30 mg BID, Week 78, Apremilast Subjects as Treated
compound,measurement,setting,value
"CCOc1cc([C@@H](CS(C)(=O)=O)N2C(=O)c3cccc(NC(C)=O)c3C2=O)ccc1OC [Apremilast, (+)-2-[1-(3-ethoxy-4-methoxyphenyl)-2-methylsulfonylethyl]-4-acetylaminoisoindoline-1,3-dione]","Weight, kg Time Point Mean ± SD","[1]; 20 mg BID, End of Period (apremilast exposure), Apremilast Subjects as Treated",84.65 ± 20.541 kg
same,"Change From Baseline (kg) Median (Min, Max)",[1]; [3],"−1.00 (−26.0, 12.5) kg"
same,"Weight, kg Time Point Mean ± SD",[1]; [3],84.89 ± 20.190 kg
same,Change From Baseline (kg) Mean ± SD,"[1]; 20 mg BID, Week 52, Apremilast Subjects as Treated, listed as APR",-1.25 kg and -1.25 ± 4.223 kg
same,"Change From Baseline (kg) Median (Min, Max)",[1]; [4],"−1.00 (−44.3, 14.0) kg"
same,"Weight, kg Time Point Mean ± SD",[1]; [4],86.63 ± 19.721 kg
same,Change From Baseline (kg) Mean ± SD,"[1]; 20 mg BID, Week 78, Apremilast Subjects as Treated, listed as APR",-1.70 kg and -1.70 ± 6.192 kg
same,"Weight % Change Category 0%, n (%)","[1]; 20 mg BID, Weeks 0-16, m = 868",122 (14.1) n (%)
same,"Weight % Change Category <−20%, n (%)","[1]; 20 mg BID, Weeks 0-16, m = 868",0 n (%)
same,"Weight % Change Category >0% to ≦5%, n (%)","[1]; 20 mg BID, Weeks 0-16, m = 868",260 (30.0) n (%)
same,"Weight % Change Category >5% to ≦10%, n (%)","[1]; 20 mg BID, Weeks 0-16, m = 868",13 (1.5) n (%)
same,"Weight % Change Category >10% to ≦20%, n (%)","[1]; 20 mg BID, Weeks 0-16, m = 868",1 (0.1) n (%)
same,"Weight % Change Category >20%, n (%)","[1]; 20 mg BID, Weeks 0-16, m = 868",0 n (%)
same,"Weight % Change Category ≧−5% to <0%, n (%)","[1]; 20 mg BID, Weeks 0-16, m = 868",431 (49.7) n (%)
same,"Weight % Change Category ≧−10% to <−5%, n (%)","[1]; 20 mg BID, Weeks 0-16, m = 868",35 (4.0) n (%)
same,"Weight % Change Category ≧−20% to <−10%, n (%)","[1]; 20 mg BID, Weeks 0-16, m = 868",6 (0.7) n (%)
same,"observed weight loss of greater than 10%, subjects n (%)",[1]; 20 mg BID,6 (0.7%) n (%)
same,percentage of subjects with weight change of -10% to <−5%,[1]; 20 mg BID,4.0%
same,"weight decrease reported, subjects n (%)",[1]; 30 mg BID,15 (1.5%) n (%)
same,"weight loss of greater than 10%, subjects n (%)","[1]; 30 mg BID, Apremilast-exposure Period",36 (3.8%) n (%)
same,"Weight % Change Category 0%, n (%)",[1]; [5],71 (7.5) n (%)
same,"Weight % Change Category <−20%, n (%)",[1]; [5],0 n (%)
same,"Weight % Change Category >0% to ≦5%, n (%)",[1]; [5],272 (28.8) n (%)
same,"Weight % Change Category >5% to ≦10%, n (%)",[1]; [5],46 (4.9) n (%)
same,"Weight % Change Category >10% to ≦20%, n (%)",[1]; [5],8 (0.8) n (%)
same,"Weight % Change Category >20%, n (%)",[1]; [5],4 (0.4) n (%)
same,"Weight % Change Category ≧−5% to <0%, n (%)",[1]; [5],387 (41.0) n (%)
same,"Weight % Change Category ≧−10% to <−5%, n (%)",[1]; [5],120 (12.7) n (%)
same,"Weight % Change Category ≧−20% to <−10%, n (%)",[1]; [5],36 (3.8) n (%)
same,"Change From Baseline (kg) Median (Min, Max)",[1]; [6],"−1.00 (−23.0, 17.1) kg"
same,"Weight, kg End of Period Mean ± SD",[1]; [6],83.61 ± 19.766 kg
same,Change From Baseline (kg) Mean ± SD,"[1]; 30 mg BID, End of Period (APR, apremilast exposure), Subjects as Initially Treated at Week 0, listed as APR",-1.26 kg and -1.26 ± 4.120 kg
same,"Change From Baseline (kg) Median (Min, Max)",[1]; [7],"−0.60 (−13.7, 11.4) kg"
same,"Weight, kg End of Period Mean ± SD",[1]; [7],83.90 ± 19.670 kg
same,Change From Baseline (kg) Mean ± SD,"[1]; 30 mg BID, End of Period (PBC, Week 24), Subjects as Initially Treated at Week 0, listed as APR",-0.97 kg and -0.97 ± 3.016 kg
same,Change From Baseline (kg) Mean ± SD,[1]; [8],-0.96 ± 5.534 kg
same,"Weight, kg Time Point Mean ± SD",[1]; [8],84.09 ± 20.309 kg
same,"Change From Baseline (kg) Median (Min, Max)",[1]; [9],"−1.30 (−23.0, 11.8) kg"
same,"Weight, kg Time Point Mean ± SD",[1]; [9],84.16 ± 19.253 kg
same,Change From Baseline (kg) Mean ± SD,"[1]; 30 mg BID, Week 52, Apremilast Subjects as Treated, listed as APR",-1.68 kg and -1.68 ± 4.049 kg
same,"Change From Baseline (kg) Median (Min, Max)",[1]; [10],"−2.00 (−16.0, 17.1) kg"
same,"Weight, kg Time Point Mean ± SD",[1]; [10],83.53 ± 18.202 kg
same,Change From Baseline (kg) Mean ± SD,"[1]; 30 mg BID, Week 78, Apremilast Subjects as Treated, listed as APR",-2.14 kg and -2.14 ± 4.605 kg
same,"Weight % Change Category 0%, n (%)","[1]; 30 mg BID, Weeks 0-16, m = 857",111 (13.0) n (%)
same,"Weight % Change Category <−20%, n (%)","[1]; 30 mg BID, Weeks 0-16, m = 857",0 n (%)
same,"Weight % Change Category >0% to ≦5%, n (%)","[1]; 30 mg BID, Weeks 0-16, m = 857",266 (31.0) n (%)
same,"Weight % Change Category >5% to ≦10%, n (%)","[1]; 30 mg BID, Weeks 0-16, m = 857",10 (1.2) n (%)
same,"Weight % Change Category >10% to ≦20%, n (%)","[1]; 30 mg BID, Weeks 0-16, m = 857",1 (0.1) n (%)
same,"Weight % Change Category >20%, n (%)","[1]; 30 mg BID, Weeks 0-16, m = 857",3 (0.4) n (%)
same,"Weight % Change Category ≧−5% to <0%, n (%)","[1]; 30 mg BID, Weeks 0-16, m = 857",424 (49.5) n (%)
same,"Weight % Change Category ≧−10% to <−5%, n (%)","[1]; 30 mg BID, Weeks 0-16, m = 857",35 (4.1) n (%)
same,"Weight % Change Category ≧−20% to <−10%, n (%)","[1]; 30 mg BID, Weeks 0-16, m = 857",7 (0.8) n (%)
same,"observed weight loss of greater than 10%, subjects n (%)",[1]; 30 mg BID,7 (0.8%) n (%)
same,percentage of subjects with weight change of -10% to <−5%,[1]; 30 mg BID,4.1%
same,"weight decrease reported, subjects n (%)",[1]; all subjects who received apremilast,25 (1.3%) n (%)
same,body weight of the majority of subjects,[1]; regardless of duration of exposure,maintained their body weight within 0% and 5% of baseline
same,IC50,[2],73.5 nM
same,% inhibition of PDE1,PDE1,23%
same,% inhibition of PDE3,PDE3,20%
